Assay results reported in patent US20230143612A1 (Arbutus Biopharma Corporation, priority 2020, published 2023).

Target: PD-L1 His protein / PD-1 Fc protein (Homo sapiens, UniProt Q9NZQ7)
Assay: HTRF Assay (PD-1/PD-L1 interaction)
Type: binding
Details: PD-L1 His 6 nM, PD-1 Fc 6 nM
Summary of the method: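 HTRF: PD-L1 His (6 nM final), compound (3-fold dilutions, 20 μM to 0.001 μM final) and PD-1 Fc (6 nM final) preincubated 15 min at room temperature. Anti-human IgG-XL665 and anti-6HIS Tb cryptate (mixed at 6.7 nM and 0.35 nM) then added for 1 h at room temperature before reading.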

Sequence of PD-L1 His protein / PD-1 Fc protein (Q9NZQ7 19-238 limits assumed): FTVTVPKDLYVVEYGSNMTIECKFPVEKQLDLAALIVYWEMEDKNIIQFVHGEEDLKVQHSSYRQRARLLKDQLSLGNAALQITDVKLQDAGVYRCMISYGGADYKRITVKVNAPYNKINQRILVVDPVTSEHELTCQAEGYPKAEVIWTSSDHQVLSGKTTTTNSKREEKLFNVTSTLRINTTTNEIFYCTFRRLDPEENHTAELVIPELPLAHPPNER

| Structure (SMILES) | IC50 |
| --- | --- |
| COc1nc(-c2cccc(-c3cccc(-c4ccn5c(=O)c(CN6CC[C@H](C(=O)O)C6)cnc5c4)c3Cl)c2Cl)ccc1CNC[C@@H]1CCC(=O)N1 [Example 94, (S)-1-((8-(2,2′-Dichloro-3′-(6-methoxy-5-(((((S)-5-oxopyrrolidin-2-yl)methyl)amino)methyl)pyridin-2-yl)-[1,1′-biphenyl]-3-yl)-4-oxo-4H-pyrido[1,2-a]pyrimidin-3-yl)methyl)pyrrolidine-3-carboxylic acid] | 0.3 nM |
| COc1nc(-c2cccc(-c3cccc(-c4ccn5c(=O)c(CNC[C@@H]6CCC(=O)N6)cnc5c4)c3Cl)c2C(F)(F)F)ccc1CNC[C@@H]1CCC(=O)N1 [Example 95, 8-(2-Chloro-3′-(6-methoxy-5-(((((S)-5-oxopyrrolidin-2-yl)methyl)amino)methyl)pyridin-2-yl)-2′-(trifluoromethyl)-[1,1′-biphenyl]-3-yl)-3-(((((S)-5-oxopyrrolidin-2-yl)methyl)amino)methyl)-4H-pyrido[1,2-a]pyrimidin-4-one] | 23 nM |
| COc1nc(-c2cccc(-c3cccc(-c4ccn5c(=O)c(CNC[C@@H]6CCC(=O)N6)cnc5c4)c3C)c2C(F)(F)F)ccc1CNC[C@@H]1CCC(=O)N1 [Example 96, 8-(3′-(6-Methoxy-5-(((((S)-5-oxopyrrolidin-2-yl)methyl)amino)methyl)pyridin-2-yl)-2-methyl-2′-(trifluoromethyl)-[1,1′-biphenyl]-3-yl)-3-(((((S)-5-oxopyrrolidin-2-yl)methyl)amino)methyl)-4H-pyrido[1,2-a]pyrimidin-4-one] | 68 nM |
| COc1nc(-c2cc(F)cc(-c3cccc(-c4ccn5c(=O)c(CNC[C@@H]6CCC(=O)N6)cnc5c4)c3C)c2Cl)ccc1CNC[C@@H]1CCC(=O)N1 [Example 97, 8-(2′-Chloro-5′-fluoro-3′-(6-methoxy-5-(((((S)-5-oxopyrrolidin-2-yl)methyl)amino)methyl)pyridin-2-yl)-2-methyl-[1,1′-biphenyl]-3-yl)-3-(((((S)-5-oxopyrrolidin-2-yl)methyl)amino)methyl)-4H-pyrido[1,2-a]pyrimidin-4-one] | 5.1 nM |
| COc1nc(-c2cccc(-c3cccc(-c4ccn5c(=O)c(CN6CC(C(=O)O)C6)cnc5c4)c3Cl)c2Cl)ccc1CNC[C@@H]1CCC(=O)N1 [Example 98, (S)-1-((8-(2,2′-Dichloro-3′-(6-methoxy-5-((((5-oxopyrrolidin-2-yl)methyl)amino)methyl)pyridin-2-yl)-[1,1′-biphenyl]-3-yl)-4-oxo-4H-pyrido[1,2-a]pyrimidin-3-yl)methyl)azetidine-3-carboxylic acid] | 0.3 nM |
| COc1nc(-c2cccc(-c3cccc(-c4cn5cc(CNC[C@@H]6CCC(=O)N6)ccc5n4)c3Cl)c2Cl)ccc1CNC[C@@H]1CCC(=O)N1 [Example 99, (S)-5-((((6-(2,2′-Dichloro-3′-(6-(((((S)-5-oxopyrrolidin-2-yl)methyl)amino)methyl)imidazo[1,2-a]pyridin-2-yl)-[1,1′-biphenyl]-3-yl)-2-methoxypyridin-3-yl)methyl)amino)methyl)pyrrolidin-2-one] | 4.8 nM |
| COc1nc(-c2cccc(-c3cccc(-c4cn5cc(CNCCO)ccc5n4)c3Cl)c2Cl)ccc1CNCCO [Example 100, 2-(((2-(2,2′-Dichloro-3′-(5-(((2-hydroxyethyl)amino)methyl)-6-methoxypyridin-2-yl)-[1,1′-biphenyl]-3-yl)imidazo[1,2-a]pyridin-6-yl)methyl)amino)ethan-1-ol] | 4.3 nM |
| COC(=O)[C@H](CO)NCc1cnc2cc(-c3cccc(-c4cccc(-c5ccc(CNC[C@@H]6CCC(=O)N6)c(OC)n5)c4Cl)c3Cl)ccn2c1=O [Example 101, Methyl ((8-(2,2′-dichloro-3′-(6-methoxy-5-(((((S)-5-oxopyrrolidin-2-yl)methyl)amino)methyl)pyridin-2-yl)-[1,1′-biphenyl]-3-yl)-4-oxo-4H-pyrido[1,2-a]pyrimidin-3-yl)methyl)-L-serinate] | 2.1 nM |
| COc1nc(-c2cccc(-c3cccc(-c4ccn5c(=O)c(CNC[C@@H]6CCC(=O)N6)cnc5c4)c3Cl)c2Cl)ccc1CNCCO [Example 102, (S)-8-(2,2′-Dichloro-3′-(5-(((2-hydroxyethyl)amino)methyl)-6-methoxypyridin-2-yl)-[1,1′-biphenyl]-3-yl)-3-((((5-oxopyrrolidin-2-yl)methyl)amino)methyl)-4H-pyrido[1,2-a]pyrimidin-4-one] | 7.1 nM |
| COc1nc(-c2cccc(-c3cccc(-c4ccn5c(=O)c(CNC[C@@H]6CCC(=O)N6)cnc5c4)c3Cl)c2Cl)ccc1CNCCNC(C)=O [Example 103, (S)—N-(2-(((6-(2,2′-Dichloro-3′-(4-oxo-3-((((5-oxopyrrolidin-2-yl)methyl)amino)methyl)-4H-pyrido[1,2-a]pyrimidin-8-yl)-[1,1′-biphenyl]-3-yl)-2-methoxypyridin-3-yl)methyl)amino)ethyl)acetamide] | 5 nM |
| COc1cc(-c2cccc(-c3cccc(-c4ccn5c(=O)c(CNC[C@@H]6CCC(=O)N6)cnc5c4)c3Cl)c2Cl)cc(F)c1CNC[C@@H]1CCC(=O)N1 [Example 104, 8-(2,2′-Dichloro-3″-fluoro-5″-methoxy-4″-(((((S)-5-oxopyrrolidin-2-yl)methyl)amino)methyl)-[1,1′:3′,1″-terphenyl]-3-yl)-3-(((((S)-5-oxopyrrolidin-2-yl)methyl)amino)methyl)-4H-pyrido[1,2-a]pyrimidin-4-one] | 8.8 nM |
| COc1c(CNC[C@@H]2CCC(=O)N2)ccc(-c2cccc(-c3cccc(-c4ccn5c(=O)c(CNC[C@@H]6CCC(=O)N6)cnc5c4)c3Cl)c2Cl)c1F [Example 105, 8-[2-Chloro-3-[2-chloro-3-[2-fluoro-3-methoxy-4-[[[(2S)-5-oxopyrrolidin-2-yl]methylamino]methyl]phenyl]phenyl]phenyl]-3-[[[(2S)-5-oxopyrrolidin-2-yl]methylamino]methyl]pyrido[1,2-a]pyrimidin-4-one] | 5.9 nM |
| COc1cc(-c2cccc(-c3cccc(-c4ccn5c(=O)c(CNC[C@@H]6CCC(=O)N6)cnc5c4)c3Cl)c2Cl)c(F)cc1CNC[C@@H]1CCC(=O)N1 [Example 106, 8-(2,2′-Dichloro-2″-fluoro-5″-methoxy-4″-(((((S)-5-oxopyrrolidin-2-yl)methyl)amino)methyl)-[1,1′:3′,1″-terphenyl]-3-yl)-3-(((((S)-5-oxopyrrolidin-2-yl)methyl)amino)methyl)-4H-pyrido[1,2-a]pyrimidin-4-one] | 4.9 nM |
| COc1nc(-c2cccc(-c3cccc(-c4ccn5c(=O)c(CNC[C@@H]6CCC(=O)N6)ccc5c4)c3Cl)c2Cl)cnc1CNC[C@@H]1CCC(=O)N1 [Example 107, 8-(2,2′-Dichloro-3′-(6-methoxy-5-(((((S)-5-oxopyrrolidin-2-yl)methyl)amino)methyl)pyrazin-2-yl)-[1,1′-biphenyl]-3-yl)-3-(((((S)-5-oxopyrrolidin-2-yl)methyl)amino)methyl)-4H-quinolizin-4-one] | 0.4 nM |
| CSc1nc(-c2cccc(-c3cccc(-c4ccn5c(=O)c(CNC[C@@H]6CCC(=O)N6)cnc5c4)c3Cl)c2Cl)ccc1CNC[C@@H]1CCC(=O)N1 [Example 108, 8-(2,2′-Dichloro-3′-(6-(methylthio)-5-(((((S)-5-oxopyrrolidin-2-yl)methyl)amino)methyl)pyridin-2-yl)-[1,1′-biphenyl]-3-yl)-3-(((((S)-5-oxopyrrolidin-2-yl)methyl)amino)methyl)-4H-pyrido[1,2-a]pyrimidin-4-one] | 1 nM |
| O=C1CC[C@@H](CNCc2ccc(-c3cccc(-c4cccc(-c5ccn6c(=O)c(CNC[C@@H]7CCC(=O)N7)cnc6c5)c4Cl)c3Cl)nc2OC2CC2)N1 [Example 109, 8-(2,2′-Dichloro-3′-(6-cyclopropoxy-5-(((((S)-5-oxopyrrolidin-2-yl)methyl)amino)methyl)pyridin-2-yl)-[1,1′-biphenyl]-3-yl)-3-(((((S)-5-oxopyrrolidin-2-yl)methyl)amino)methyl)-4H-pyrido[1,2-a]pyrimidin-4-one] | 1.4 nM |
| O=C1CC[C@@H](CNCc2ccc(-c3cccc(-c4cccc(-c5ccn6c(=O)c(CNC[C@@H]7CCC(=O)N7)cnc6c5)c4Cl)c3Cl)cc2OC(F)F)N1 [Example 110, 8-(2,2′-Dichloro-3″-(difluoromethoxy)-4″-(((((S)-5-oxopyrrolidin-2-yl)methyl)amino)methyl)-[1,1′:3′,1″-terphenyl]-3-yl)-3-(((((S)-5-oxopyrrolidin-2-yl)methyl)amino)methyl)-4H-pyrido[1,2-a]pyrimidin-4-one] | 2.4 nM |
| COc1nc(-c2cccc(-c3cccc(-c4ccn5c(=O)c(CN6CC(C(C)(C)O)C6)cnc5c4)c3Cl)c2Cl)ccc1CNC[C@@H]1CCC(=O)N1 [Example 111, (S)-8-(2,2′-Dichloro-3′-(6-methoxy-5-((((5-oxopyrrolidin-2-yl)methyl)amino)methyl)pyridin-2-yl)-[1,1′-biphenyl]-3-yl)-3-((3-(2-hydroxypropan-2-yl)azetidin-1-yl)methyl)-4H-pyrido[1,2-a]pyrimidin-4-one] | 6.5 nM |
| COc1nc(-c2cccc(-c3cccc(-c4ccn5c(=O)c(CNC[C@@H]6CCC(=O)N6)cnc5c4)c3Cl)c2Cl)ccc1CN1CC(C(C)(C)O)C1 [Example 112, (S)-8-(2,2′-Dichloro-3′-(5-((3-(2-hydroxypropan-2-yl)azetidin-1-yl)methyl)-6-methoxypyridin-2-yl)-[1,1′-biphenyl]-3-yl)-3-((((5-oxopyrrolidin-2-yl)methyl)amino)methyl)-4H-pyrido[1,2-a]pyrimidin-4-one] | 2.9 nM |
| COC(=O)[C@H](CO)NCc1ccc(-c2cccc(-c3cccc(-c4ccn5c(=O)c(CNC[C@@H]6CCC(=O)N6)cnc5c4)c3Cl)c2Cl)nc1OC [Example 113, Methyl ((6-(2,2′-dichloro-3′-(4-oxo-3-(((((S)-5-oxopyrrolidin-2-yl)methyl)amino)methyl)-4H-pyrido[1,2-a]pyrimidin-8-yl)-[1,1′-biphenyl]-3-yl)-2-methoxypyridin-3-yl)methyl)-L-serinate] | 54 nM |
